In data set [1] the test system is MRSA (NRS384 strain of USA300). Kind of data set: MIC determination for extracellular bacteria in liquid culture. Type of data set: cell-based. The settings on record: Staphylococcus aureus, read-out: Extracellular MRSA MIC. Here is the method: The MIC for extracellular bacteria was determined by preparing serial 2-fold dilutions of the antibiotic in Tryptic Soy Broth. Dilutions of the antibiotic were made in quadruplicate in 96 well culture dishes. MRSA (NRS384 strain of USA300) was taken from an exponentially growing culture and diluted to 1×10^4 CFU/mL. The bacteria was cultured in the presence of antibiotic for 18-24 hours with shaking at 37° C. and bacterial growth was determined by reading the Optical Density (OD) at […]. The MIC was determined to be the dose of antibiotic that inhibited bacterial growth by >90%.
(§1) For extracellular bacteria, MRSA was cultured overnight in Tryptic Soy Broth, and the MIC was determined to be the minimum antibiotic dose that prevented growth. For intracellular bacteria, murine peritoneal macrophages were infected with MRSA and cultured in the presence of gentamycin to kill extracellular bacteria. Test antibiotics were added to the culture medium one day post infection, and the total number of surviving intracellular bacteria was determined 24 hours later. The expected serum concentrations for clinically relevant antibiotics was reported in Antimicrobial Agents, Andre Bryskier. ASM Press, Washington D.C. (2005).

Data set [2] concerns intracellular MRSA sequestered inside murine macrophages. The data set is described as follows: MIC determination for intracellular bacteria inside murine peritoneal macrophages. Type of data set: cell-based, Staphylococcus aureus. The following applies: for MIC: Staphylococcus aureus, MRSA, read-out: Intracellular MRSA MIC; for killing of MRSA sequestered inside macrophages: macrophages exposed to clinically achievable concentrations. The method, then: Intracellular MIC was determined on bacteria that were sequestered inside mouse peritoneal macrophages (see below for generation of murine peritoneal macrophages). Macrophages were plated in 24 well culture dishes at a density of 4×10^5 cells/mL and infected with MRSA at a ratio of 10-20 bacteria per macrophage. Macrophage cultures were maintained in growth media supplemented with 50 ug/mL of gentamycin (an antibiotic that is active only on extracellular bacteria) to inhibit the growth of extracellular bacteria and test antibiotics were added to the growth media 1 day after infection. The survival of intracellular bacteria was assessed 24 hours after addition of the antibiotics. Macrophages were lysed with Hanks Buffered Saline Solution supplemented with 0.1% Bovine Serum Albumin and 0.1% Triton-X, and serial dilutions of the lysate were made in Phosphate Buffered Saline solution containing 0.05% Tween-20. The number of surviving intracellular bacteria was determined by plating on Tryptic Soy Agar plates with 5% defibrinated sheep blood.
Peritoneal macrophages were isolated from the peritoneum of 6-8 week old Balb/c mice (Charles River Laboratories, Hollister, Calif.). To increase the yield of macrophages, mice were pre-treated by intraperitoneal injection with 1 mL of thioglycolate media (Becton Dickinson). The thioglycolate media was prepared at a concentration of 4% in water, sterilized by autoclaving, and aged for 20 days to 6 months prior to use. Peritoneal macrophages were harvested 4 days post treatment with thioglycolate by washing the peritoneal cavity with cold phosphate buffered saline. Macrophages were plated in Dulbecco's Modified Eagle Medium (DMEM) supplemented with 10% Fetal Calf Serum, and 10 mM HEPES, without antibiotics, at a density of 4×10^5 cells/well in 24 well culture dishes. Macrophages were cultured over night to permit adherence to the plate. This assay was also utilized to test intracellular killing in non-phagocytic cell types. MG63 (CRL-1427) and A549 (CCL185) cell lines were obtained from ATCC and maintained in RPMI 1640 tissue culture media supplemented with 10 mM Hepes and 10% Fetal Calf Serum (RPMI-10). HUVEC cells were obtained from Lonza and maintained in EGM Endothelial Cell Complete Media (Lonza, Walkersville, Md.).
as §1

For data set [3] the following is noted: expected serum concentration, from Antimicrobial Agents, Bryskier (2005); cited from earlier work.
For data set [4], the system named is S. aureus (USA300) persister cells. The data set is described as follows: Killing of persister cells by free antibiotics. The following applies: ciprofloxacin-treated cultures, second antibiotic 1 ug/ml. In kind it is cell-based, Staphylococcus aureus. Here is the method:
Killing of persisters cells by free antibiotics: S. aureus (USA300) was taken from an overnight stationary phase culture, washed once in Tryptic Soy Broth (TSB) and then adjusted to a final concentration of 1×10^7 CFU/ml in a total volume of 10 mL of either TSB or TSB with ciprofloxicin (0.05 mM). Cultures were incubated with shaking at 37° C. for 6 hours and then the second antibiotic, either rifampicin (1 ug/ml) or another rifamycin-type antibiotic (1 ug/ml) was added. At the indicated times, samples were removed from each culture, washed once with PBS to remove the antibiotic and re-suspended in PBS. The total number of surviving bacteria was determined by plating serial dilutions of the bacteria on agar plates. At the final time point the remainder of each culture was collected and plated.

[5] abbreviates: extracellular bacteria grown in liquid culture (Tryptic Soy Broth).
Setting [6] is: bacteria sequestered inside murine macrophages, antibiotics added one day post infection, survivors counted 24 hours later.

Values after ≈ are worked out from the molar mass of the structure shown. Where two headings read alike, the source gives them in different places.

As for `CC(=O)NC[C@H]1CN(c2ccc(N3CCOCC3)c(F)c2)C(=O)O1` [Linezolid], the MIC was 0.3 µg/mL (≈ 0.889 µM) in data set [1] (setting [5]) and over 20 µg/mL in data set [2] (setting [6]). In data set [2], the “killing of MRSA sequestered inside macrophages” value was “failed to kill”. The “Serum Cmax” value in data set [3] is 20000 ng/mL.
On to `CO[C@H]1/C=C/O[C@@]2(C)Oc3c(C)c(O)c4c(O)c(c(/C=N/N5CCN(C)CC5)c(O)c4c3C2=O)NC(=O)/C(C)=C\C=C\[C@H](C)[C@H](O)[C@@H](C)[C@@H](O)[C@@H](C)[C@H](OC(C)=O)[C@@H]1C` [Rifampicin], for which the MIC was determined as 0.004 µg/mL (≈ 0.00486 µM) in data set [1] (setting [5]) and 50 µg/mL (≈ 60.8 µM) in data set [2] (setting [6]). In addition, the “higher dose to eliminate intracellular MRSA compared to the dose required to inhibit growth (MIC) of planktonic bacteria” value in data set [2] (intracellular vs planktonic MRSA USA300) was 6,000 fold. Further, in data set [4], the “effect on viability of persister cells” value is recorded as “no effect”.
Take `CCCCCCCCCC(=O)N[C@@H](Cc1c[nH]c2ccccc12)C(=O)N[C@H](CC(N)=O)C(=O)N[C@@H](CC(=O)O)C(=O)N[C@@H]1C(=O)NCC(=O)N[C@@H](CCCN)C(=O)N[C@@H](CC(=O)O)C(=O)N[C@H](C)C(=O)N[C@@H](CC(=O)O)C(=O)NCC(=O)N[C@H](CO)C(=O)N[C@@H]([C@H](C)CC(=O)O)C(=O)N[C@@H](CC(=O)c2ccccc2N)C(=O)O[C@@H]1C` [Daptomycin]: the figures for the MIC in data set [1] and in data set [2] (24 h) were 4 µg/mL (≈ 2.47 µM) and over 100 µg/mL, respectively. Moreover, the “killing of MRSA sequestered inside macrophages” value in data set [2] is on record as “failed to kill”. In addition, the “Serum Cmax” value in data set [3] was 60000 ng/mL.

Source of the values: US20180021450A1, “ANTI-STAPHYLOCOCCUS AUREUS ANTIBODY RIFAMYCIN CONJUGATES AND USES THEREOF” (Genentech, Inc., priority 2014, published 2018).
